# Results reported in US20240109853A1 (Shanghai Yao Yuan Biotechnology Co., Ltd., priority 2020, published 2024).
# Where two headings read alike, the source gives them in different places.
# Columns and labels:
# [1] = test system: ALPK1-dependent NFκB reporter gene activation in HEK293 cells stably expressing an NF-kB reporter (G9 cells); experiment: NFκB gene reporter alkaline phosphatase assay; type: cell-based; conditions: read-out: NFkB assay IC50
# Method in brief: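 Compounds, serially diluted, were added to attached HEK293-derived G9 reporter cells for 30 min prior to stimulation with the fluoro-heptose ADP agonist. Secreted alkaline phosphatase was quantified colorimetrically using pNPP.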
# hALPK1-V1092A = hALPK1-V1092A (Homo sapiens (Human), UniProt Q96QP1, V1092A); experiment: cell-based
# Experimental: Accordingly, we used IL-8 secretion as an indicator of activated ALPK1 inhibition in cells expressing these mutations.
# Transfection was performed according to manufacturer's protocols (Lipofectamine™ 3000, ThermoFisher). Transfected cells were selected, seeded onto 96-well plates and treated with serial dilutions of the test compounds for 6.5 hr. Following treatment, cell viability was determined using a luminescent cell viability assay (Cell Counting-Lite Assay or “CCL Assay” from Vazyme Biotech Co., Ltd.) and cell free supernatants were collected and analyzed for IL-8 protein by IL-8 ELISA as described above.
# Fresh medium and compound were added at 18 hours. Cell viability and IL-8 secretion were determined 6 hours after the second addition of compound, using the CCL assay and IL-8 ELISA as described above.
# ALPK1 = ALPK1 (Homo sapiens (Human), UniProt Q96QP1); experiment: ALPK1 in vitro kinase assay (HTRF of TIFA phosphorylation); type: biochemical
# [2] = test system: innate immunity gene expression in kidney; experiment: Inhibition of activated ALPK1 in kidney: innate immunity gene expression after ALPK1 agonist; type: in vivo, Sprague-Dawley (SD) rats; conditions: SD rats, 4, 10 or 25 mg/kg oral 2 hours prior to agonist ip, kidney 3 hours after agonist, RT-PCR
# Experimental: FIG. 2: Treatment groups were administered 4, 10 or 25 mg/kg of the ALPK1 inhibitor A0176 2 hours prior to the agonist, D-glycero-D-manno-6-fluoro-heptose-1β-S-ADP.
# To test the effects of the ALPK1 inhibitors on the expression of innate immunity genes activated upon ALPK1 activation, SD rats were orally administered ALPK1 inhibitors followed by activation of innate immunity genes by intraperitoneal administration of an ALPK1 agonist, D-glycero-D-manno-6-fluoro-heptose-1β-S-ADP. Kidney tissue was harvested and assayed for gene expression. Briefly, Twenty male Sprague-Dawley (SD) rats were randomly divided into five groups. The normal group was given vehicle (0.5% MC) orally. After 2 hours, PBS was given by ip injection. The control group was given vehicle (0.5% MC) orally. After 2 hours, D-glycero-D-manno-6-fluoro-heptose-1β-S-ADP (50 μpk) was given by ip injection. The other 3 groups were given the ALPK1 inhibitor A0176 (4, 10 and 25 mpk) orally. After 2 hours, D-glycero-D-manno-6-fluoro-heptose-1β-S-ADP (50 μpk) was given by ip injection. […] Quantitative PCR was conducted using AceQ qPCR SYBR Green Master Mix Kit (Vazyme, Nanjing, China) on the QuantStudio 5 applied biosystems (Thermo scientific, USA). The relative mRNA levels were calculated using the 2-ΔΔCT method, and HPRT was used as a reference for gene expression normalization. […]
# [3] = test system: polymicrobial sepsis induced by cecal ligation and puncture; experiment: Sepsis induced acute kidney injury model (cecal ligation and puncture, CLP); conditions: rat CLP, 20 mg/kg 2 hours prior to surgery; for kidney proinflammatory gene expression (IL6, TNFa, IL-1b, CCl2, KC): kidneys 24 hours post-surgery, Q-PCR; for survival: survival over 24 hours
# Experimental: Survival was recorded over the following 24 hours.
# 24 hours post-surgery, the kidneys were collected for gene expression analysis by Q-PCR.
# 24 hours post-surgery, plasma MCP-1 concentration was measured by ELISA.
# We used a rat CLP model to evaluate the effects of compounds described here on sepsis. Briefly, the rat cecum was ligated with sterile silk thread, and then cecum was punctured twice with a needle, gently squeezed to express a small amount of fecal material, then the abdominal incision was closed. […] In addition, at 24 hours post-surgery, the kidneys were collected for gene expression analysis by Q-PCR and plasma was collected for measurement of plasma MCP-1 concentrations by ELISA.
# [4] = ALPK1 2 nM, TIFA substrate, ADP-Heptose activator, HTRF readout
# Sequence of ALPK1 (Q96QP1 whole entry): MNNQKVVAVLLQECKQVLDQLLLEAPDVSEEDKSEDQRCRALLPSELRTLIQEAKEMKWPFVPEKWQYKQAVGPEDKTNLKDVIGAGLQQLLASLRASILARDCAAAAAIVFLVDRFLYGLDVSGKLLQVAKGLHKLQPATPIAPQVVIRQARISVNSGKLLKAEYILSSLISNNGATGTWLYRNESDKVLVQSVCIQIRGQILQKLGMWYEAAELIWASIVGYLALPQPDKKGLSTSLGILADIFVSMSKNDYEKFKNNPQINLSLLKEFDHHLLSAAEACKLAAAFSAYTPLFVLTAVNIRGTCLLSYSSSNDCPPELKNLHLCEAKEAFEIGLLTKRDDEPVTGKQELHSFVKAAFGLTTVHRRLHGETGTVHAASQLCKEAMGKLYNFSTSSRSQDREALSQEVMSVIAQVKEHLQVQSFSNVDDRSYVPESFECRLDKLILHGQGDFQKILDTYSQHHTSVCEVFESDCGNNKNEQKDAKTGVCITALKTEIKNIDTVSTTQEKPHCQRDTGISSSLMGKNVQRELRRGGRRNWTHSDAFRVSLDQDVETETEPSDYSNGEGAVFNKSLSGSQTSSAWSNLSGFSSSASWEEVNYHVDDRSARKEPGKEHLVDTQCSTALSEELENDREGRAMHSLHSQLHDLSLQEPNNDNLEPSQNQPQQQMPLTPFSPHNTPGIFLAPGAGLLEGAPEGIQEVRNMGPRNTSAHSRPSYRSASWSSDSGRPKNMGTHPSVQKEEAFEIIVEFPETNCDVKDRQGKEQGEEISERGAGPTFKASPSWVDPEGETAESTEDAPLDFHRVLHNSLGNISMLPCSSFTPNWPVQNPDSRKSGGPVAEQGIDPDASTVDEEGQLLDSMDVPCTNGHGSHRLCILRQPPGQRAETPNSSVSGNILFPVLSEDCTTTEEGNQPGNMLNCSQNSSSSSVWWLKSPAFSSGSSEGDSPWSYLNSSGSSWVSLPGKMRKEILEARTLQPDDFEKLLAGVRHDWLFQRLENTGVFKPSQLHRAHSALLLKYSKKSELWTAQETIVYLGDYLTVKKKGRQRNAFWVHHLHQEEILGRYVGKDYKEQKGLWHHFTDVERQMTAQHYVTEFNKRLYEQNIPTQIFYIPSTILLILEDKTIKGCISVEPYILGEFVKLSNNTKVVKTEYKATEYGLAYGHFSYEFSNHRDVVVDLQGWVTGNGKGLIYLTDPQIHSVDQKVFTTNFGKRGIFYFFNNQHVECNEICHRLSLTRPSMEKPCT
# Sequence of hALPK1-V1092A (Q96QP1 whole entry V1092A): as the sequence (Q96QP1 whole entry) above, with V1092A counted along it
Structure (SMILES),"IC50 ([1]; Homo sapiens, HEK293)",IC50 (hALPK1-V1092A),IC50 (ALPK1),other results
"C#C[C@](C)(c1ccc(Cl)cc1)c1csc(NC(=O)NC(C)CO)n1 (stereo in doubt) [Example A314, 1-(4-(2-(4-chlorophenyl)but-3-yn-2-yl)thiazol-2-yl)-3-(1-hydroxypropan-2-yl)urea]",800 nM,4000 nM,–,–
"C#CC(C)(c1ccc(Cl)cc1)c1csc(NC(=O)NCC(O)CO)n1 (centres unmarked) [Example A244, 1-(4-(2-(4-chlorophenyl)but-3-yn-2-yl)thiazol-2-yl)-3-(2,3-dihydroxypropyl)urea]",1030 nM,4790 nM,72 nM,–
"C#C[C@](C)(c1ccc(Cl)cc1)c1csc(NC(=O)NCC(C)O)n1 (stereo in doubt) [Example A316, 1-(4-(2-(4-chlorophenyl)but-3-yn-2-yl)thiazol-2-yl)-3-(2-hydroxypropyl)urea]",1810 nM,16400 nM,–,–
"C#C[C@@](C)(c1ccc(Cl)cc1)c1csc(NC(=O)N2CC(CN3CCNCC3)C2)n1 (stereo in doubt) [Example A292, N-(4-(2-(4-chlorophenyl)but-3-yn-2-yl)thiazol-2-yl)-3-(piperazin-1-ylmethyl)azetidine-1-carboxamide]",650 nM,547 nM,43 nM,–
"C#C[C@@](C)(c1ccc(OC)cc1)c1csc(NC(=O)NCCS(N)(=O)=O)n1 [Example A311, 2-(3-(4-(2-(4-methoxyphenyl)but-3-yn-2-yl)thiazol-2-yl)ureido)ethanesulfona-mide]",660 nM,1160 nM,95 nM,–
C#C[C@@](C)(c1ccc(Cl)cc1)c1csc(NC(=O)NCCO)n1 [Example A0176],–,–,–,"kidney gene expression of innate immunity genes (MCP-1 (CCL-2), CCL-7, CXCL-1, CXCL-10, IL-1p, IL-6 mRNA) [2]: dose-dependent inhibition of gene expression levels; kidney proinflammatory gene expression (IL6, TNFa, IL-1b, CCl2, KC) [3]: decreased expression of kidney proinflammatory genes; plasma MCP-1 concentration ([3]; plasma 24 hours post-surgery, ELISA): improved the plasma MCP-1 levels; survival [3]: improved the animals' survival rate"
"C#C[C@@](C)(c1ccc(Cl)cc1)c1csc(NC(=O)NCCC(C)(C)O)n1 [Example A249, (S)-1-(4-(2-(4-chlorophenyl)but-3-yn-2-yl)thiazol-2-yl)-3-(3-hydroxy-3-methylbutyl)urea]",670 nM,11700 nM,128 nM,–
"C#C[C@@](C)(c1ccc(Cl)cc1)c1csc(NC(=O)c2c(F)cc(N3CCNCC3)cc2F)n1 [Example C008, (S)-N-(4-(2-(4-chlorophenyl)but-3-yn-2-yl)thiazol-2-yl)-2,6-difluoro-4-(piperazin-1-yl)benzamide]",–,–,–,"kidney proinflammatory gene expression (IL6, TNFa, IL-1b, CCl2, KC) [3]: decreased expression of kidney proinflammatory genes; survival [3]: improved the animals' survival rate"
"C#C[C@](C)(c1ccc(OC)cc1)c1csc(NC(=O)NCCS(N)(=O)=O)n1 [Example A310, 2-(3-(4-(2-(4-methoxyphenyl)but-3-yn-2-yl)thiazol-2-yl)ureido)ethanesulfona-mide]",980 nM,1910 nM,223 nM,–
"C#C[C@](C)(c1ccc(Cl)cc1)c1csc(NC(=O)NC(C)CO)n1 (stereo in doubt) [Example A315, 1-(4-(2-(4-chlorophenyl)but-3-yn-2-yl)thiazol-2-yl)-3-(1-hydroxypropan-2-yl)urea]",–,2770 nM,–,IC50 [1]: 650 nM
"C#C[C@](C)(c1ccc(Cl)cc1)c1csc(NC(=O)NCCO)n1 [Example A175, (R)-1-(4-(2-(4-chlorophenyl)but-3-yn-2-yl)thiazol-2-yl)-3-(2-hydroxyethyl)urea]",1310 nM,4030 nM,32 nM,–
"C#C[C@@](C)(c1ccc(Cl)cc1)c1csc(NC(=O)NC(C)CO)n1 (stereo in doubt) [Example A313, 1-(4-(2-(4-chlorophenyl)but-3-yn-2-yl)thiazol-2-yl)-3-(1-hydroxypropan-2-yl)urea]",–,10200 nM,–,IC50 [1]: 2820 nM
"C#CC(C)(c1ccc(Cl)cc1)c1csc(NC(=O)N2CC(N3CCNCC3)C2)n1 (centres unmarked) [Example A261, N-(4-(2-(4-chlorophenyl)but-3-yn-2-yl)thiazol-2-yl)-3-(piperazin-1-yl)azetidine-1-carboxamide]",510 nM,573 nM,83 nM,–
"C#C[C@@](C)(c1ccc(Cl)cc1)c1csc(NC(=O)NCCS(N)(=O)=O)n1 [Example A289, 2-(3-(4-(2-(4-chlorophenyl)but-3-yn-2-yl)thiazol-2-yl)ureido)ethanesulfona-mide]",470 nM,439 nM,54 nM,–
"C#C[C@@](C)(c1ccc(Cl)cc1)c1csc(NC(N)=O)n1 [Example A252, (S)-1-(4-(2-(4-chlorophenyl)but-3-yn-2-yl)thiazol-2-yl)urea]",530 nM,723 nM,30 nM,–
"C#C[C@@](C)(c1ccc(Cl)cc1)c1csc(NC(=O)NCC(C)O)n1 (stereo in doubt) [Example A317, 1-(4-(2-(4-chlorophenyl)but-3-yn-2-yl)thiazol-2-yl)-3-(2-hydroxypropyl)urea]",970 nM,1930 nM,–,–
C#C[C@@](C)(c1ccc(Cl)cc1)c1csc(NC(=O)N2CC(c3ccc(N4CCNCC4)c(F)c3)C2)n1 [Example A245],680 nM,304 nM,16 nM,–
"C#C[C@@](C)(c1ccc(Cl)cc1)c1csc(NC(=O)NC(C)CO)n1 (stereo in doubt) [Example A312, 1-(4-(2-(4-chlorophenyl)but-3-yn-2-yl)thiazol-2-yl)-3-(1-hydroxypropan-2-yl)urea]",2120 nM,16000 nM,–,–
"C#C[C@@](C)(c1ccc(Cl)cc1)c1csc(NC(=O)NCC(C)O)n1 (stereo in doubt) [Example A319, 1-(4-(2-(4-chlorophenyl)but-3-yn-2-yl)thiazol-2-yl)-3-(2-hydroxypropyl)urea]",–,7860 nM,–,IC50 [1]: 670 nM
"C#C[C@](C)(c1ccc(Cl)cc1)c1csc(NC(N)=O)n1 [Example A251, (R)-1-(4-(2-(4-chlorophenyl)but-3-yn-2-yl)thiazol-2-yl)urea]",1670 nM,892 nM,81 nM,–
"C#C[C@](C)(c1ccc(Cl)c(F)c1)c1csc(NC(=O)c2c(F)cc(N3CCNCC3)cc2F)n1 (stereo in doubt) [Example C037, N-(4-(2-(4-chloro-3-fluorophenyl)but-3-yn-2-yl)thiazol-2-yl)-2,6-difluoro-4-(piperazin-1-yl)benzamide]",–,8300 nM,–,IC50 (ALPK1; [4]): 151 nM
"CC(c1ccccc1)c1csc(NC(=O)c2c(F)cc(N3CCNCC3)cc2F)n1 (centres unmarked) [Example C002, 2,6-difluoro-N-(4-(1-phenylethyl)thiazol-2-yl)-4-(piperazin-1-yl)benzamide]",–,3370 nM,–,IC50 (ALPK1; [4]): 47 nM
"COCC(C)(c1ccc(Cl)cc1)c1csc(NC(=O)c2c(F)cc(N3CCNCC3)cc2F)n1 (centres unmarked) [Example C016, N-(4-(2-(4-chlorophenyl)-1-methoxypropan-2-yl)thiazol-2-yl)-2,6-difluoro-4-(piperazin-1-yl)benzamide]",–,1590 nM,–,IC50 (ALPK1; [4]): 16 nM
"C#C[C@@](C)(c1ccc(Cl)cc1)c1csc(NC(=O)NCCO)n1 [Example A176, (S)-1-(4-(2-(4-chlorophenyl)but-3-yn-2-yl)thiazol-2-yl)-3-(2-hydroxyethyl)urea]",280 nM,1550 nM,5.4 nM,–
